Experiment [1] concerns aorta rings of Mas−/− mice. Kind of experiment: Vasorelaxation in precontracted aorta rings of mice with genetic deletion of the Mas receptor (Mas-/-). It is filed as cell-based, mice (C57/BI-6 and FVB/N). The following applies: both lineages C57/BI-6 and FVB/N, precontracted with fenilefrine 0.1 μM. The procedure: This example describes the vasodilating effect of Ala^1-Ang-(1-7), independently of the Mas receptor, on aorta rings of mice with genetic deletion of the Mas receptor (Mas−/−) and wild-type mice (Mas+/+) from two different lineages, C57/BI-6 and FVB/N.
The original rings of the descending thoracic aorta (2 mm), free from adipose tissue and connective tissue, were incubated in gasified solution (95% O2 and 5% CO2) of Krebs-Henseleit (mmol/L): NaCl 110.8, KCl 5.9, NaHCO3 25.0, MgSO4 1.07, CaCl2 2.49, NaH2PO4 2.33 and glucose 11.51, under a temperature of 37° C. and a 0.5 g tension, being equilibrated for 1 hour. The functional presence of endothelium was tested by its relaxing capacity produced by acetylcholine [ACh] (10 μM) on vessels precontracted with fenilefrine (0.3 μM). Only the vessels showing relaxation above 70% of extended contraction produced by fenilefrine were taken into account. […]
The aorta rings of mice Mas−/− and Mas+/+ from both lineages (C57/BI-6 and FVB/N) were precontracted to achieve the same tension level (approximately a 1.0 g tension) at a submaximum concentration of fenilefrine (0.1 μM). […] The vasodilating effects of Ala^1-Ang-(1-7) and Ang-(1-7) were expressed as a percentage of relaxation relative to the maximum contraction induced by fenilefrine. […]

For experiment [2], the target named is T1, angiotensin converter enzyme (ACE) (Rattus norvegicus, UniProt P47820).
T1 construct: from tissue; host or cells: plasma of Wistar rats
T1 sequence (P47820 36-1238 limits assumed): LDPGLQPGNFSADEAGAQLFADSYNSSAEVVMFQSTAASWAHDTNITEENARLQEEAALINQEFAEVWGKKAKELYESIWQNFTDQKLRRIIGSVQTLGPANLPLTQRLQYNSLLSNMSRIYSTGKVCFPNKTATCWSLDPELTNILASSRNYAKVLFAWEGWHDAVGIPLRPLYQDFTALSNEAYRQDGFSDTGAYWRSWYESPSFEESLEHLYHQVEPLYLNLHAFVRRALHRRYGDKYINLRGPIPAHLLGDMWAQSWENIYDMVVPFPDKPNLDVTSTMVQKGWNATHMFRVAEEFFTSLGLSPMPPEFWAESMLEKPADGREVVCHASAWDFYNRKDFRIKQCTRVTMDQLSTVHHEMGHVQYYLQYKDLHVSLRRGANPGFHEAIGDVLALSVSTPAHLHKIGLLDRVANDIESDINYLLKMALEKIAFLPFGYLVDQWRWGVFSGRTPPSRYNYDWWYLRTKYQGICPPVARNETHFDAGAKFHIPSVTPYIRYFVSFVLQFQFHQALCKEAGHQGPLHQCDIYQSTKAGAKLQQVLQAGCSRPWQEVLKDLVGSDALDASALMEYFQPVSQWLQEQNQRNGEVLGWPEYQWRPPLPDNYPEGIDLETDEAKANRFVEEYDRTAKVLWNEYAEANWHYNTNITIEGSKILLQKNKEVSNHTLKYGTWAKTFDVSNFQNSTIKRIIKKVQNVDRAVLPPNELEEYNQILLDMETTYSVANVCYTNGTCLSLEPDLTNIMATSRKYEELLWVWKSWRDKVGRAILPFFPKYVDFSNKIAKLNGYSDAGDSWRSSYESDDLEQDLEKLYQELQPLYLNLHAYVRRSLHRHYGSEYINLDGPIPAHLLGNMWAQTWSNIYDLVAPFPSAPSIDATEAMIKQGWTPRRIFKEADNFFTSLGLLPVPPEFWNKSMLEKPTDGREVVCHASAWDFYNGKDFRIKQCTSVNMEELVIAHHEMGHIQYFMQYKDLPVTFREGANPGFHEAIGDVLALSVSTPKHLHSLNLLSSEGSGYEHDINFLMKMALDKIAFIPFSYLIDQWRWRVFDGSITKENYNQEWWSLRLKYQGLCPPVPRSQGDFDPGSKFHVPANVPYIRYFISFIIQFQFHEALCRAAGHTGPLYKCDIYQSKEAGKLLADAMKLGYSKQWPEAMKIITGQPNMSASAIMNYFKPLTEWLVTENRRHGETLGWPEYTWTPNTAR
Nature of the experiment: Plasmatic ACE activity, fluorimetric method with Hip-His-Leu substrate. The experiment is classed as biochemical, Wistar rats. Conditions: Wistar rat plasma. The procedure:
The plasmatic activity of ACE was measured by the fluorimetric method using Hip-His-Leu as substrate, as previously described (Santos, R. A. S. et al., Hypertension, 7:244-52, (1985)). Plasma aliquots (10 μL) of Wistar rats were incubated with a […] solution containing a 1 mM substrate (Hip-His-Leu) and 0.4 M of sodium borate, 0.9 M NaCl (pH=8.3) for 15 minutes at 37° C. The reaction was halted by adding 1.2 mL of NaOH at 0.34 M and […] of orthoftaldehyde (20 mg/mL in methanol). After 10 minutes at environment temperature, […] of HCl at 3 N was added. Later on, after a 5-minute 800×g centrifugation, the floating solution fluorescence was measured (a 365 nm excitation and a 495 nm emission). The blank was prepared by inverting the addition order of plasma and NaOH. A 0.5 to 20 nmol curve, containing the product (His-Leu) resulting of the substrate break (Hip-His-Leu) by ACE plasmatic activity, was prepared in each assay. In order to test the inhibition effect of ACE by the PEPTIDEs Ang-(1-7) and Ala^1-Ang-(1-7), 3.3×10^−7 or 3.3×10^−6 M of each PEPTIDE was added before the plasma addition. […] The percentage of enzymatic activity inhibition was estimated in function of the maximum activity obtained.

This is an account of results in patent US9974825B2, “Peptides Des-[Asp1]-[Ala1], angiotensin-(1-7) agonist and pharmaceutical compositions for the treatment of diseases” (UNIVERSIDADE FEDERAL DE MINAS GERAIS, priority 2008, dated 2018).

As to “Asp^1-Arg^2-Val^3-Tyr^4-Ile^5-His^6-Pro^7 [Ang-(1-7)]”, the vasodilating response entry in experiment [1] was “absence”. Also, the ACE inhibition in experiment [2] (peptide 3.3×10^−6 M) is on record as 85.8%; in experiment [2] (peptide 3.3×10^−7 M) it was 42.4%.
In the case of “Ala^1-Arg^2-Val^3-Tyr^4-Ile^5-His^6-Pro^7 [Ala^1-Ang-(1-7)]”, the vasodilating response entry in experiment [1] is recorded as “totally preserved”. In addition, the ACE inhibition in experiment [2] (peptide 3.3×10^−6 M) turned out to be 98.3%; in experiment [2] (peptide 3.3×10^−7 M), 76.3%.
